Assay results taken from US10314816B2, “Antimicrobial compounds, compositions and methods of use thereof” (Wisconsin Alumni Research Foundation, priority 2012, dated 2019).

Legend:
Venus-FtsA = test: Measurement of compound effects on FtsA localization; format: cell-based, Caulobacter crescentus; conditions: C. crescentus, 20 minutes
Method: Measurement of compound effects on FtsA: For experiments with C. crescentus expressing Venus-FtsA, a synchronized population of cells was used. First, an overnight culture was grown with kanamycin (5 μg/mL) and glucose (0.02% w/v). The presence of glucose suppressed the transcription of venus-ftsA from its xylose-inducible promoter. 2 mL of this culture was diluted into 25 mL of fresh PYE with the antibiotic and glucose, and incubated further to achieve an absorbance of ˜0.6 (λ=600 nm). Once the cells reached mid-exponential phase, the culture was centrifuged for 10 minutes at 6000 rpm and 4° C. The cell pellet was resuspended in ice-cold M2 (a final volume of approximately 1000 μL) and 750 μL of this suspension was added to an equal-volume of sterile Percol (Sigma Aldrich). After thoroughly mixing the solution, it was centrifuged for 20 minutes at 11,000 rpm and 4° C. Upon centrifugation, the bottom band (swarmer cells) was taken and the cells were washed in ice-chilled M2 solution (1 mL). The washed cell pellet was suspended in fresh PYE containing kanamycin (no glucose, 6 mL). The cell suspension was incubated for 20 minutes and then xylose (0.03% w/v) was added to induce the expression of venus-ftsA. Cells were grown for another 20 minutes and subsequently treated with compounds. The cells were incubated for 20 minutes again in the presence of the compounds prior to imaging. Thus, the total time of xylose induction was 40 minutes, and the total time of compound treatment was 20 minutes. At this time point (60 minutes post synchrony), the majority of the cells were at the beginning of cell division. Imaging conditions and data analysis were identical to the conditions described for MipZ-YFP, except for a set of criteria used for defining ‘wildtype’ protein localization. ‘Wildtype’ was defined as 1) Venus-FtsA is unipolar, meaning there was one peak, and the peak resided within a polar region; and 2) Venus-FtsA was at the mid-cell, meaning there was one peak and it was within the mid-cell region (40-60% of the normalized cell length). […]

S. aureus FRI 100 = test: MIC of bacterial growth, macrodilution (Table 2); format: cell-based; conditions: Staphylococcus aureus, FRI100; S. aureus FRI 100, actively growing cells
Method: Bacterial strains and growth conditions. Luria-Bertani (LB) media (10 g/L tryptone, 10 g/L NaCl, 5 g/L yeast extract, pH 7.2) was used to grow B. subtilis 168, S. aureus FRI100, and P. aeruginosa K1115 strains. […] All cultures were grown at 37° C., except for C. crescentus (30° C.). All cultures were grown while shaking at 200 rpm.

GFP-MinD = test: Measurement of compound effects on MinD localization; format: cell-based, Bacillus subtilis; conditions: B. subtilis cells, treated 20 minutes, compared to DMSO
Method: Measurement of compound effects on MinD: B. subtilis DS4294 (amyE::Pxyl-GFP-minD cat) cells were grown to exponential phase (λ=600 nm, 0.4-0.7) in LB with incubation at 30° C. and 200 rpm shaking. Cells were induced for GFP-MinD production by adding xylose to the media to a final concentration of 0.1% (w/v) followed by incubating for 75 min. After induction, cells were treated with compounds for 20 minutes before imaging. Other details for imaging conditions and data analysis were identical to those described for MipZ-YFP, except for the definition of poles, and a set of criteria used for defining ‘wildtype’ protein localization. ‘Wildtype’ was defined as 1) GFP-MinD was bipolar, meaning there were two peaks, and both peaks were at the poles (1-20% and 80-100% of the normalized cell length); 2) GFP-MinD was at the mid-cell in addition to the bipolar localization, meaning there were three peaks with two of them at the poles and one at mid-cell; and 3) GFP-MinD was at an quaternary position (20-40% and 60-80% of the normalized cell length) in addition to the bipolar and mid-cell localization (the total number of peaks was 4 if there is one quaternary peak, and the total was 5 if there are two quaternary peaks). Because B. subtilis cells can initiate division prior to finishing an earlier division and the completion of septation, these normal cells have peaks at quaternary positions. […]

B. subtilis 168 = test: MIC of bacterial growth, macrodilution (Table 2); format: cell-based; conditions: Bacillus subtilis
Method: Bacterial strains and growth conditions. Luria-Bertani (LB) media (10 g/L tryptone, 10 g/L NaCl, 5 g/L yeast extract, pH 7.2) was used to grow B. subtilis 168, S. aureus FRI100, and P. aeruginosa K1115 strains. For P. aeruginosa PAO1 and K1119 strains and two E. coli BW25113 strains, M8 minimal media (241 mg/L MgSO4, 4 mg/L glucose, 5 mg/L casamino acids, 12.8 g/L Na2HPO4.7H2O, 3 g/L KH2PO4, and 0.5 g/L NaCl) was used. PYE media (2 g/L peptone, 1 g/L yeast extract, 0.8 mM MgSO4, and 0.5 mM CaCl2) was used for culturing C. crescentus cells at 30° C. All cultures were grown at 37° C., except for C. crescentus (30° C.). All cultures were grown while shaking at 200 rpm.
Determination of the minimum inhibitory concentration (MIC) of bacterial growth. The MIC of various organisms in liquid media was determined using the macrodilution method according to the NCCLS guidelines. For the starting inoculum, cultures were diluted to contain approximately 5×10^5 cells/mL in growth media. To create a two-fold dilution series for the macrodilution technique, each compound was added to the first culture tube (4 mL total volume) at the highest concentration. 2 mL of this culture was diluted into an equal volume of inoculated media (a two-fold dilution). The final volume for each culture was 2 mL.

With OCC(CO)(CO)NCC(O)Cn1c2ccc(Cl)cc2c2cc(Cl)ccc21 (stereo not drawn) [DCAP, 2-((3-(3,6-dichloro-9H-carbazol-9-yl)-2-hydroxypropyl)amino)-2-(hydroxymethyl)propane-1,3-diol] the Venus-FtsA localization (Venus-FtsA; treated with DCAP) was “exhibited multiple peaks of FtsA fluorescence (≥2)”, the MIC (S. aureus FRI 100) was 50 µM and the GFP-MinD localization (GFP-MinD) was “GFP-MinD mislocalized”. For the same compound, the MIC (B. subtilis 168) was 32 µM.
With N#CC(C#N)=NNc1cccc(Cl)c1 [CCCP, carbonyl cyanide m-chlorophenyl hydrazone] the Venus-FtsA localization (Venus-FtsA; CCCP at its minimum inhibitory concentration (5 μM)) was “did not alter the localization of FtsA”, the Venus-FtsA localization (Venus-FtsA; higher concentration of CCCP (25 μM)) was “had a significant effect on the position of FtsA” and the MIC (S. aureus FRI 100) was 1.25 µM. The GFP-MinD localization (GFP-MinD) was “more diffuse fluorescence throughout the cell but had little effect on the location of the signal” and the MIC (B. subtilis 168) was 10 µM.
